# Read-outs that look alike come from different tables or passages of the source.
# Legend:
# [1] = tested on: Hsp90, androgen receptor and AKT in LNCaP prostate cancer cells; assay: Western blot of Hsp90 and client proteins (AR, AKT) in LNCaP cells; type: cell-based; conditions: 24 hours
# Description: FIG. 3 (top panel) is a western blot analysis of prostate cancer LNCaP cells treated with KU-1/A4. The bottom panel is a western blot analysis of prostate cancer LAPC-4 cells incubated with KU-1/A4. Actin was used as a control in both assays. […] Western blot analysis of the effects of KU-1/A4 on Hsp90 client proteins in prostate cancer LNCaP cells. Cells were treated with varying concentrations of KU-1/A4 for 24 hours and probed for the androgen receptor (“AR”), protein kinase […] (“AKT”), Hsp90, and actin.
# The steroid hormone receptors are also dependent upon the Hsp90 protein folding machinery for activation and hormone binding. To determine whether KU-1/A4 had similar effects on the androgen receptor, KU-1/A4 was tested in both a mutated androgen receptor-dependent prostate cancer cell line (LNCaP) and a wild type androgen receptor prostate cancer cell line (LAPC-4). More specifically, the prostate cancer cells were grown in RPMI with 10% fetal calf serum in a standard fashion. Once the cells had reached near confluence, they were treated with vehicle (DMSO) or varying concentrations of KU-1/A4 ranging from 10 nm to 100 μM for 24 hours. Cells were harvested and cell lysates prepared. […] More specifically, Western Blot analysis protein concentrations in serum samples were determined by the Pierce BCA protein assay kit according to the manufacturer's protocol. […]
# [2] = tested on: primary cortical neurons exposed to Aβ25-35; assay: Protection against Aβ-induced toxicity in primary neurons (Live-Dead assay); type: cell-based, rat
# Description: In this example, the neuroprotective effects of KU-1/A4 were determined in primary neurons derived from embryonic rat brain exposed to Aβ (10 μM) in the presence or absence of the test compound for 48 hours. The percentage of surviving neurons was determined by labeling with the fluorescent dyes calcein-AM and propidium iodide as previously described. […] The numbers of calcein-labeled live cells and propidium iodide-labeled dead neurons in several fields were visualized via fluorescence microscopy and counted as described.
# Briefly, about 10 to 16 brains were removed from fetuses delivered by cesarean section, and the cortices dissected out. The neurons were isolated and suspended in DMEM/F12 supplemented with 10% FBS and plated on sterile dishes or cover slips coated with 10 μg/ml poly-D-lysine and 5 μg/ml mouse laminin. After 24 hours, the serum-containing medium was removed, and neurons were maintained in Neurobasal medium (Gibco) with 2% B-27 supplements (Gibco). Cells were maintained in culture at 37° C. in 5% CO2 and 97% humidity for 7 to 8 eight days in vitro (DIV) before use. Neurons were exposed to 0.004% DMSO or the indicated concentrations of GA or KU-1/A4 for two hours before the addition of 10 μM Aβ25-35 for either 24 or 48 hours as indicated. Stock solutions of Aβ were prepared in sterile water at a concentration of 1.3 mM and stored at −20° C. Aliquots of the stock solutions were diluted to 1 mM in sterile 50 mM Tris-HCl, pH 7.4, and incubated at 37° C. for 24 hours to promote oligomerization of the peptides prior to treatment of the neurons. The effects of KU-1/A4, GA, Aβ, or the indicated combinations on neuronal viability were determined by monitoring cell survival using the Live-Dead assay as previously described. […] Digital images from 6 fields per dish were captured, and the number of viable (green) and dead (red) cells counted. All experiments were conducted with duplicate dishes from at least two neuronal preparations for each treatment, with about 1,000 cells analyzed/treatment condition. The data are expressed as the fraction of viable cells calculated from the total number of neurons counted under each treatment condition. The significance of differences between cultures exposed to various treatment conditions was determined using Student's t-test.
# [3] = tested on: bovine microvessel endothelial cells (BMECs); assay: Transport across BMEC monolayers in vitro; type: in vitro ADME
# Description: In this example, BMECs were grown on 0.4 μm polycarbonate membranes in a petri dish coated with rat tail collagen and fibronectin. […] Briefly, each chamber was filled with 3 mL of PBSA and the donor chamber included KU-1/A4 (10 μM). A temperature of 37° C. was maintained with an external circulating water bath and chamber contents were stirred with Teflon coated magnetic stir bars driven by an external console. At various time points (5, 15, 30, 45, and 90 minutes), 100 μL aliquots were removed from the receiver side and replaced with 100 μL of blank PBSA warmed to 37° C. Samples of the donor solution were also taken for analysis. All samples were analyzed for concentration by RP-HPLC analysis using a Shimadzu dual pump HPLC system equipped with an Alltech (C18, 4.6 mm×150 mm) column. The solvent system consisted of H2O (solvent A) and methanol (solvent B). Analytical samples were eluted with 20% solvent B over 10 minutes at a flow rate of 0.90 mL/min and UV detection at 208 nm. […] The integrity of the cell monolayer was tested post experiment by monitoring the permeability of [^14C]-sucrose, a low permeability marker. Radioactive samples were analyzed by liquid scintillation counting.
compound,measurement,setting,value
"CO[C@@H]1[C@@H](O)[C@@H](O)[C@H](Oc2ccc3cc(NC(C)=O)c(=O)oc3c2)OC1(C)C [KU-1/A4, N-(7-((2R,3R,4S,5R)-3,4-dihydroxy-5-methoxy-6,6-dimethyl-tetrahydro-2H-pyran-2-yloxy)-2-oxo-2H-chromen-3-yl)acetamide]",concentration at which degradation of client proteins AR and AKT occurs,[1],1 µM
same,lowest concentration inducing Hsp90,[1],10 nM
same,lowest concentration with minor neuroprotective effects,"[2]; Aβ 10 μM, 48 hours",0.5 nM
same,lowest concentration giving (significant) protection of neurons against Aβ,"[2]; Aβ 10 μM, compound added 2 hours before, viability at 48 hours",5 nM
same,EC50,"[2]; Rattus norvegicus, Primary cortical neuron, read-out: EC50, prevention of Aβ-induced toxicity, Aβ 10 μM, compound added 2 hours before, viability at 48 hours",~6 nM
same,EC50,"[2]; read-out: EC50, prevention of Aβ-induced toxicity, Aβ 10 μM, compound added 2 hours before, viability at 48 hours",5 nM
same,time until abluminal chamber concentration sufficed for full neuroprotective effects,[3]; 10 μM in donor chamber,≤ 15 min
same,concentration in the receiving chamber,"[3]; 10 μM in donor chamber, 90 minutes",1200 nM
same,transport across BMECs,"[3]; 10 μM in donor chamber, up to 90 minutes",time-dependent linear transport
same,receiving chamber concentration relative to concentration for 50% neuroprotection,[3]; 90 minutes,200 fold

# — patent US9120774B2 (University of Kansas, priority 2009, dated 2015)
